From ChEMBL document CHEMBL4196052, “Rational modifications on a benzylidene-acrylohydrazide antiviral scaffold, synthesis and evaluation of bioactivity against Chikungunya virus” (Eur J Med Chem, 2018)

What was measured:
Chikungunya virus [1] = assay: Antiviral activity against Chikungunya virus Indian Ocean strain 899 infected in African green monkey Vero cells assessed as inhibition of viral-induced cytopathic effect measured on day 5 post infection by MTS/PMS assay; assay type: functional, organism-based, Indian Ocean 899; conditions: for EC50 / EC90: Chikungunya virus, Indian Ocean 899, Vero, 120 h
Chikungunya virus [2] = assay: Antiviral activity against Chikungunya virus Indian Ocean strain 899 infected in African green monkey Vero cells assessed as inhibition of viral-induced cytopathic effect by measuring concentration required for maximum activity measured on day 5 post infection by MTS/PMS assay; assay type: functional, Indian Ocean 899
[3] = Cytotoxicity against African green monkey Vero cells by MTS/PMS assay; assay type: cell-based; conditions: chlorocebus sabaeus
[4] = Selectivity index, ratio of CC50 for African green monkey Vero cells to EC50 for Chikungunya virus Indian Ocean strain 899 infected in African green monkey Vero cells; assay type: toxicity; conditions: read-out: Ratio CC50/EC50

Compound	Imax (Chikungunya virus [1])	EC50 (Chikungunya virus [1])	EC90 (Chikungunya virus [1])	Activity (Chikungunya virus [2])	CC50 [3]	selectivity ratio [4]
Cc1ccc(NC(=O)N/C=C/c2ccccc2)cc1	21%	> 396 µM	> 396 µM	396 µM		
CCOc1ccc(/C=N/NC(=O)/C=C/c2ccc(C(C)(C)C)cc2)cc1OCC	100%		11 µM	12.5 µM		
COc1ccc(CNC(=O)N/C=C/c2ccccc2)cc1OC	13%	> 320 µM	> 320 µM	320 µM		
CCOc1ccc(/C=N/NC(=O)c2cc3ccccc3[nH]2)cc1OCC	50%	> 213 µM	> 213 µM	213 µM		
Cc1ccc(/C=N/NC(=O)c2cnc3ccccc3c2)cc1	27%	> 346 µM	> 346 µM	346 µM		
COc1ccc(CNC(=O)N/C=C/c2ccc(C(C)(C)C)cc2)cc1OC	100%	11.6 µM	14.8 µM	17 µM		
O=C(N/N=C/c1ccc(O)cc1)c1cnc2ccccc2c1	<1%	> 343 µM	> 343 µM	343 µM		
CCOc1ccc(/C=N/NC(=O)c2ccc3ccccc3n2)cc1OCC	8%	> 275 µM	> 275 µM	275 µM		
CCOc1ccc(-c2nnc(CCc3ccccc3)o2)cc1OCC	4%	> 98.4 µM	> 98.4 µM	73.9 µM		
Cc1ccc(-c2nnc(/C=C/c3ccc(C(C)(C)C)cc3)o2)cc1	8%	> 157 µM	> 157 µM	157 µM		
C/C(=N\NC(=O)c1ccc2ccccc2c1)c1ccc(C2CCCCC2)cc1	14%	> 270 µM	> 270 µM	270 µM		
CC(C)(C)c1ccc(/C=C/NC(=O)Nc2ccc(O)cc2)cc1	100%	9.1 µM	11.9 µM	4.1 µM		
O=C(N/N=C/c1ccc(O)cc1)c1nc2ccccc2[nH]1	33%	> 357 µM	> 357 µM	357 µM		
CCOc1ccc(C(=O)NNC(=O)/C=C/c2ccc(C(C)(C)C)cc2)cc1OCC	11%	> 244 µM	> 244 µM	6.3 µM		
Cc1ccc(/C=N/NC(=O)c2nc3ccccc3[nH]2)cc1	14%	> 120 µM	> 120 µM	120 µM		
Cc1ccc(/C=N/NC(=S)NCCc2ccccc2)cc1	12%	> 336 µM	> 336 µM	56 µM		
C/C(=N\NC(=O)/C=C/c1ccc(C(F)(F)F)cc1)c1ccc(C2CCCCC2)cc1	12%	> 241 µM	> 241 µM	241 µM		
CCOc1ccc(/C=N/NC(=O)c2nc3ccccc3[nH]2)cc1OCC	6%	> 284 µM	> 284 µM	284 µM		
COc1ccc(/C=C/C(=O)N/N=C/c2ccc(C)cc2)cc1	13%	> 112 µM	> 112 µM	112 µM		
CCOc1ccc(/C=N/NC(=O)/C=C/c2ccc(C(C)C)cc2)cc1OCC	30%	> 29.2 µM	> 29.2 µM	8 µM		
O=C(N/N=C/c1ccc(O)cc1)c1ccc2ccccc2n1	<1%	> 343 µM	> 343 µM	343 µM		
C/C(=N\NC(=O)c1ccc2ccccc2n1)c1ccc(C2CCCCC2)cc1	13%	> 269 µM	> 269 µM	269 µM		
CCOc1ccc(/C=N/NC(=O)c2cnc3ccccc3c2)cc1OCC	3%	> 275 µM	> 275 µM	275 µM		
Cc1ccc(-c2[nH]c3ccccc3c2/C=N/NC(=S)NCCc2ccccc2)cc1	100%	1.8 µM	2.5 µM	2.5 µM	7.8 µM	4.4
Cc1ccc(-c2nnc(CCc3ccc(C(C)(C)C)cc3)o2)cc1	100%	17.2 µM	21.7 µM	26 µM		
Cc1ccc(CNC(=O)N/C=C/c2ccccc2)cc1	18%	> 376 µM	> 376 µM	376 µM		
C/C(=N\NC(=O)c1cnc2ccccc2c1)c1ccc(C2CCCCC2)cc1	19%	> 202 µM	> 202 µM	202 µM		
Cc1ccc(/C=N/NC(=O)c2ccc3ccccc3n2)cc1	3%	> 346 µM	> 346 µM	346 µM		
